ChEMBL document CHEMBL1949588, “Synthesis of [¹¹C]uric acid, using [¹¹C]phosgene, as a possible biomarker in PET imaging for diagnosis of gout” (Bioorg Med Chem Lett, 2012)

Tests used:
[1] = system: Blood; assay: Metabolic stability in Sprague-Dawley rat blood assessed as formation of [11C][…] metabolite at 22 to 30 MBq, iv after 30 mins by radiometric HPLC analysis; assay type: ADME, organism-based; settings: in vivo, 0.5 h
[2] = system: Blood; assay: Drug uptake in potassium oxonate treated Sprague-Dawley rat hyperuricemic model blood at 22 to 30 MBq, iv after 60 mins by gamma counting; settings: in vivo, 1 h
[3] = system: Rattus norvegicus; assay: Ratio of drug uptake in potassium oxonate treated Sprague-Dawley rat hyperuricemic model at 22 to 30 MBq, iv after 60 mins to drug uptake in normal rat; assay type: ADME, organism-based; settings: in vivo, 1 h
[4] = Drug uptake in potassium oxonate treated Sprague-Dawley rat hyperuricemic model limb at 22 to 30 MBq, iv after 65 to 70 mins by PET analysis; assay type: ADME, organism-based; settings: in vivo
[5] = system: Blood; assay: Ratio of drug uptake in potassium oxonate treated Sprague-Dawley rat hyperuricemic model blood at 22 to 30 MBq, iv after 65 to 70 mins to drug uptake in normal rat; assay type: ADME, organism-based; settings: in vivo
[6] = Metabolic stability in potassium oxonate treated Sprague-Dawley rat hyperuricemic model blood assessed as compound remaining at 22 to 30 MBq, iv after 30 mins by radiometric HPLC analysis; assay type: ADME, organism-based; settings: read-out: Stability

In the case of `O=c1[nH]c(=O)c2[nH][11c](=O)[nH]c2[nH]1`, the Stability [1] is reported as “Unstable”, the Drug uptake [2] is reported as 0.57 %ID and the Ratio [3] is reported as 1.7. The Drug uptake [4] was “Active”, the Ratio [5] was 1.6 and the remaining at 0.5 h [6] was 100%.
